Experimental data: patent publication US20250092043A1, “Kinase Inhibitors and Degraders” (Incyte Corporation, priority 2023, published 2025)

What follows are compounds tested against T1, JAK2 (Homo sapiens, UniProt O60674, V617F) (assay: Western blot quantitation of JAK2 degradation in SET2 cells). Conditions: 5 μM compound, 8 hours treatment, western blot densitometry vs. DMSO vehicle.
T1 construct: their effect on JAK2 protein degradation in SET2 cells; host or cells: SET2 cells (human essential thrombocythemia)
T1 sequence (O60674 whole entry V617F): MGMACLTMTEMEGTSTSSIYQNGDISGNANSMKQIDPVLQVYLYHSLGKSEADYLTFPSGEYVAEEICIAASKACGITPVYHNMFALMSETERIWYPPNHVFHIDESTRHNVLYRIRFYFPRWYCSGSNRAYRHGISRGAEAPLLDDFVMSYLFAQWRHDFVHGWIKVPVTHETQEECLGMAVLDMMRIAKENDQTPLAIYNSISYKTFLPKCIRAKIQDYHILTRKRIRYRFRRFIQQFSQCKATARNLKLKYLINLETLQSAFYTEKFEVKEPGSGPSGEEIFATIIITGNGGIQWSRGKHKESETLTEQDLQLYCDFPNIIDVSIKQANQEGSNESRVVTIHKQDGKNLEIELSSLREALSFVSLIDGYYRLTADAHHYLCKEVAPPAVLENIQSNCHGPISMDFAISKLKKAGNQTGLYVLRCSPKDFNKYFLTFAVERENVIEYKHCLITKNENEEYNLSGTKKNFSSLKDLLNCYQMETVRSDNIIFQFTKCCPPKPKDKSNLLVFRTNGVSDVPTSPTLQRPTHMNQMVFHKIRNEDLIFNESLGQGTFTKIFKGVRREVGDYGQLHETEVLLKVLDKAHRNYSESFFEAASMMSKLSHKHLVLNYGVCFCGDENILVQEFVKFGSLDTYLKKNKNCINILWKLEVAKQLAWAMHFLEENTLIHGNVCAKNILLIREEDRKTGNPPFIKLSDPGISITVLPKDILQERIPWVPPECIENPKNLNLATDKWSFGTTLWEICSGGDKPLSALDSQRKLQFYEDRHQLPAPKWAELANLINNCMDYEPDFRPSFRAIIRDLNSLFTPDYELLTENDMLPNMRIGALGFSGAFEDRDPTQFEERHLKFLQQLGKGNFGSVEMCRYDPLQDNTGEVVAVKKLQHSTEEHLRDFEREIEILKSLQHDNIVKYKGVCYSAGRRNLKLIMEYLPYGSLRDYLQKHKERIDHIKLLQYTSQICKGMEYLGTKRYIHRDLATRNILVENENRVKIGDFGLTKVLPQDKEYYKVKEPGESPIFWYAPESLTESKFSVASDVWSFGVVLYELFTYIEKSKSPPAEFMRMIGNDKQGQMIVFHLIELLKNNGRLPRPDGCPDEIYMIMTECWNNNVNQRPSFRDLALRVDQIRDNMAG
Assay type: cell-based
Protocol: Example E. Western Blot Analysis of JAK2 Dependent SET2 Cells Treated with Compounds of the Present Disclosure
SET2 cells (DSMZ, catalog number ACC 608) are isolated from a person with human essential thrombocythemia and carry the JAK2 V617F mutation.
SET2 cells were cultured in RPMI culture medium (Gibco, catalog number 11875085) supplemented with 1% penicillin-streptomycin-glutamine (Thermo Fisher Scientific, catalog number 10378016) and 20% fetal bovine serum (Gibco, catalog number 10438034). Cultured cells were maintained at 37° C., 5% CO2 in the incubator.
Approximately 1,000,000 cells/well were added in 6-well plate containing 1.5 ml culture media with specified concentrations of compounds of the present disclosure or DMSO control. Cells were treated with concentrations of 10 uM, 5 uM, 1 uM, and 0.5 uM. Proteasome inhibitor MG-132 (Cell signaling, catalog number 2194) was added at 20 uM to an additional 10 uM compound treatment. The treatment period was 8 hours. After 8 hours, cells were collected in 1.5 mL microcentrifuge tubes. Tubes were centrifuged at 1500 rpm for 5 min. Supernatant was aspirated and samples were washed with 1 mL of cold PBS. The samples were centrifuged again at 1500 rpm for 5 min, supernatant was aspirated. The sample pellets were lysed using 150 μL of 1× lysing buffer (Cell Signaling Technologies—catalog number 9803S) supplemented with 1× Halt™ Protease and Phosphatase Inhibitor Cocktail (Thermo Fisher Scientific—catalog number 78447). Using Pierce™ BCA Protein Assay Kit (Thermo Fisher Scientific—catalog number 23225), protein concentration of the samples were quantitated. After normalizing sample concentration to approximately 20 ug/well, samples were loaded onto 4-12% Tris-glycine gels. Gels were transferred to nitrocellulose membranes using iBlot 2 Dry Blotting System and iBlot™ 2 Transfer Stacks, nitrocellulose (Thermo Fisher Scientific—catalog number IB23001). Following transfer, membranes were blocked with StartingBlock (Thermo Fisher Scientific—catalog number 37543). After 1 hour of blocking membranes, they were probed for JAK2, pSTAT5, STAT5, CRBN, and GAPDH (Cell Signaling—catalog numbers 3230, 4322, 25656, 71810, and 5174 respectively).
Compounds of the present disclosure were screened at various concentrations to determine their effect on JAK2 protein degradation in SET2 cells, using methods as described above. DMSO was used as the vehicle control with no PROTAC® added. Co-administration of 20 μM of the proteasome inhibitor MG-132 with the PROTAC® compound at its highest concentration (i.e., 5 or 10 μM) tested was conducted to support the hypothesis that the degradation was driven by the ubiquitin-proteosome system (UPS). Degradation was evaluated by western blot densitometry quantitation using the FluorChem M instrument software to analyze the intensity of the JAK2 band signal at various concentrations of PROTAC® compound vs. the JAK2 band signal of the DMSO vehicle. It is noted that ˜82% of JAK2 exists as the V617F mutant, with the remaining 18% of JAK2 being WT. Therefore, if the V617F mutant JAK2 is selectively degraded over the WT, the maximum degradation is ˜80%. Degradation was graded as A: […]; B: ≥40% to <60% degradation; C: ≥20% to <40% degradation, D: <20% to ≥10%; E<10%. ** refers to degradation at 0.5 μM.

JAK2 % Degradation in SET2	SMILES
C (C: ≥20% to <40% degradation)	COC(=O)N[C@@H]1CC[C@@H](n2c(=O)n(C)c3cnc4[nH]c(-c5ccc(C(=O)N6CCC(C(=O)N7CCN(c8cccc9c8C(=O)N(C8CCC(=O)NC8=O)C9=O)CC7)CC6)cc5)c(-c5ccc6c(cnn6C(C)C)c5)c4c32)C1 (stereo partly drawn) [Example 37, methyl ((1R,3R)-3-(7-(4-(4-(4-(2-(2,6-dioxopiperidin-3-yl)-1,3-dioxoisoindolin-4-yl)piperazine-1-carbonyl)piperidine-1-carbonyl)phenyl)-8-(1-isopropyl-1H-indazol-5-yl)-3-methyl-2-oxo-3,6-dihydroimidazo[4,5-d]pyrrolo[2,3-b]pyridin-1(2H)-yl)cyclopentyl) carbamate]
A (A: ≥600% degradation)	COC(=O)N[C@@H]1CC[C@@H](n2c(=O)n(C)c3cnc4[nH]c(-c5ccc(CN6CCC(CN7CCN(c8ccc9c(c8)CN(C8CCC(=O)NC8=O)C9=O)CC7)CC6)cc5)c(-c5ccc6c(cnn6C(C)C)c5)c4c32)C1 (stereo partly drawn) [Example 43, Methyl((1R,3R)-3-(7-(4-((4-((4-(2-(2,6-dioxopiperidin-3-yl)-1-oxoisoindolin-5-yl)piperazin-1-yl)methyl)piperidin-1-yl)methyl)phenyl)-8-(1-isopropyl-1H-indazol-5-yl)-3-methyl-2-oxo-3,6-dihydroimidazo[4,5-d]pyrrolo[2,3-b]pyridin-1(2H)-yl)cyclopentyl)carbamate]

Same assay, conditions: 10 μM compound, 8 hours treatment, western blot densitometry vs. DMSO vehicle

JAK2 % Degradation in SET2	SMILES
A (A: ≥600% degradation)	COC(=O)N[C@@H]1CC[C@@H](n2c(=O)n(C)c3cnc4[nH]c(-c5ccc(C(=O)N6CCC(CN7CCN(c8cccc9c8C(=O)N(C8CCC(=O)NC8=O)C9=O)CC7)CC6)cc5)c(-c5ccc6c(cnn6C(C)C)c5)c4c32)C1 (stereo partly drawn) [Example 33, methyl ((1R,3R)-3-(7-(4-(4-((4-(2-(2,6-dioxopiperidin-3-yl)-1,3-dioxoisoindolin-4-yl)piperazin-1-yl)methyl)piperidine-1-carbonyl)phenyl)-8-(1-isopropyl-1H-indazol-5-yl)-3-methyl-2-oxo-3,6-dihydroimidazo[4,5-d]pyrrolo[2,3-b]pyridin-1(2H)-yl)cyclopentyl) carbamate]
C (C: ≥20% to <40% degradation)	CN[C@@H](C)C(=O)N[C@H](C(=O)N1C[C@@H](NC(=O)[C@H]2CC[C@H](CNC(=O)c3ccc(-c4[nH]c5ncc6c(c5c4-c4ccc5c(cnn5C(C)C)c4)n([C@@H]4CC[C@@H](NC(=O)OC)C4)c(=O)n6C)cc3F)CC2)C[C@H]1C(=O)N[C@@H]1CCCc2ccccc21)C1CCCCC1 [Example 47, Methyl((1R,3R)-3-(7-(4-((((trans)-4-(((3S,5S)-1-((S)-2-cyclohexyl-2-((S)-2-(methylamino)propanamido)acetyl)-5-(((R)-1,2,3,4-tetrahydronaphthalen-1-yl)carbamoyl)pyrrolidin-3-yl)carbamoyl)cyclohexyl)methyl)carbamoyl)-3-fluorophenyl)-8-(1-isopropyl-1H-indazol-5-yl)-3-methyl-2-oxo-3,6-dihydroimidazo[4,5-d]pyrrolo[2,3-b]pyridin-1(2H)-yl)cyclopentyl)carbamate]
A (A: ≥600% degradation)	COC(=O)N[C@@H]1CC[C@@H](n2c(=O)n(C)c3cnc4[nH]c(-c5ccc(C(=O)N6CCC(CN7CCN(c8ccc9c(c8)CN(C8CCC(=O)NC8=O)C9=O)CC7)CC6)c(F)c5)c(-c5ccc6c(cnn6C(C)C)c5)c4c32)C1 (stereo partly drawn) [Example 36, methyl ((1R,3R)-3-(7-(4-(4-((4-(2-(2,6-dioxopiperidin-3-yl)-1-oxoisoindolin-5-yl)piperazin-1-yl)methyl)piperidine-1-carbonyl)-3-fluorophenyl)-8-(1-isopropyl-1H-indazol-5-yl)-3-methyl-2-oxo-3,6-dihydroimidazo[4,5-d]pyrrolo[2,3-b]pyridin-1(2H)-yl)cyclopentyl) carbamate]
C (C: ≥20% to <40% degradation)	COC(=O)N[C@@H]1CC[C@@H](n2c(=O)n(C)c3cnc4[nH]c(-c5ccc(C(=O)NCCOCC(=O)Nc6cccc7c6CN(C6CCC(=O)NC6=O)C7=O)c(F)c5)c(-c5ccc6c(cnn6C(C)C)c5)c4c32)C1 (stereo partly drawn) [Example 24, methyl ((1R,3R)-3-(7-(4-((2-(2-((2-(2,6-dioxopiperidin-3-yl)-1-oxoisoindolin-4-yl)amino)-2-oxoethoxy)ethyl)carbamoyl)-3-fluorophenyl)-8-(1-isopropyl-1H-indazol-5-yl)-3-methyl-2-oxo-3,6-dihydroimidazo[4,5-d]pyrrolo[2,3-b]pyridin-1(2H)-yl)cyclopentyl) carbamate]
D (D: <20% to ≥10%)	COC(=O)N[C@@H]1CC[C@@H](n2c(=O)n(C)c3cnc4[nH]c(-c5ccc(C(=O)N(C)CCOCC(=O)Nc6ccc7c(c6)CN(C6CCC(=O)NC6=O)C7=O)c(F)c5)c(-c5ccc6c(cnn6C(C)C)c5)c4c32)C1 (stereo partly drawn) [Example 27, methyl ((1R,3R)-3-(7-(4-((2-(2-((2-(2,6-dioxopiperidin-3-yl)-1-oxoisoindolin-5-yl)amino)-2-oxoethoxy)ethyl)(methyl)carbamoyl)-3-fluorophenyl)-8-(1-isopropyl-1H-indazol-5-yl)-3-methyl-2-oxo-3,6-dihydroimidazo[4,5-d]pyrrolo[2,3-b]pyridin-1(2H)-yl)cyclopentyl) carbamate]
C (C: ≥20% to <40% degradation)	CCNC(=O)[C@H](Cc1ccc(F)cc1)NC(=O)[C@@H]1CCCN1C(=O)[C@@H](NC(=O)[C@H](C)NCCOCCNC(=O)c1ccc(-c2[nH]c3ncc4c(c3c2-c2ccc3c(cnn3C(C)C)c2)n([C@@H]2CC[C@@H](NC(=O)OC)C2)c(=O)n4C)cc1F)C1CCCCC1 [Example 31, methyl ((1R,3R)-3-(7-(4-((2-(2-(((S)-1-(((S)-1-cyclohexyl-2-((S)-2-(((S)-1-(ethylamino)-3-(4-fluorophenyl)-1-oxopropan-2-yl)carbamoyl)pyrrolidin-1-yl)-2-oxoethyl)amino)-1-oxopropan-2-yl)amino)ethoxy)ethyl)carbamoyl)-3-fluorophenyl)-8-(1-isopropyl-1H-indazol-5-yl)-3-methyl-2-oxo-3,6-dihydroimidazo[4,5-d]pyrrolo[2,3-b]pyridin-1(2H)-yl)cyclopentyl) carbamate]
